{
  "source": "paper PMC4213378",
  "about": "“Pharmacokinetics and Efficacy of the Spleen Tyrosine Kinase Inhibitor R406 after Ocular Delivery for Retinoblastoma” (Pharmaceutical Research, 2014)",
  "key": {"[1]": {"test": "Crashing upon dilution of DMSO stock in PBS", "format": "physicochemical", "description": "Supplement 11095_2014_1399_MOESM1_ESM.docx, table 14: Table S14. R406 phenylsulfonate salt and free base crashing upon dilution of DMSO stock in PBS | column: Measured Concentration"}, "[2]": {"test": "Storage stability of R406 in murine vitreous samples", "format": "physicochemical, mouse", "method": "Stability: The extracted solution stability of R406 from murine plasma or vitreous was assessed at low (41.2nM), medium (370.4 nM), and high (3333.3 nM) concentrations in triplicate at room temperature. Blank murine plasma was spiked with the indicated concentrations of R406 and extracted solutions were stored at room temperature for day 0, and day 2. The short-term stability of R406 in murine plasma or vitreous at -20 °C was assessed at three concentrations in triplicate. […] internal standard/acetonitrile as described previously: for murine plasma samples, 50 µL of sample was quenched by addition of 100 µL of 5 mg/L OSI-906 (internal standard) in 100% acetonitrile, followed by plate sealing, shaking and centrifuging, transfer of 100 µL of supernatant injection of 10 µL of supernatant onto the LC–MS/MS system; for murine vitreous samples, 5 µL of sample quenched by addition of 45 µL of 5 mg/L OSI-906 (internal standard) in 100% acetonitrile, followed by plate sealing, shaking and centrifuging, transfer of 40 µL of supernatant injection of 10 µL of supernatant onto the LC–MS/MS system. Long term stability of R406 in murine plasma or vitreous at −80 °C was assessed. Unextracted spiked murine plasma or vitreous at low, medium, and high levels was frozen at −80 °C for 0, 7, and 14 days. Samples were thawed immediately extracted with acetonitrile/OSI-906, and quantitated. All samples were analyzed in triplicates."}, "[3]": {"test_system": "RB355 retinoblastoma cells", "test": "RB355 cell viability (Cell Titer Glo) after varied exposure durations", "format": "cell-based", "method": "RB355 retinoblastoma cells were maintained in RPMI medium (Lonza RPMI-1640) supplemented with 10% FBS (Equitech-Bio), penicillin, streptomycin, and glutamate (Gibco). BJ cells were grown in EMEM (Lonza) supplemented with 10% FBS, penicillin and streptomycin. 293T cells were grown in DMEM supplemented with 10% FBS, penicillin, streptomycin, and glutamate. Cells were passaged every 3-4 days or when they reached 70%-80% confluence.\nRB335 cells were seeded in 6-well dishes. Seeded cells were incubated overnight at 37 °C in a humidified 5% CO2 incubator. Cells were treated with DMSO alone, 1, 2.5, or 5 µM R406 and returned to the incubator. At 0, 6, 12, 18, 24, and 72 h, the drugged media was removed from a subset of samples (n=3 samples per cell line) and replaced with drug-free media, washing out the R406 for the remainder of the 72 h incubation. After 72 hours, cells were suspended and aliquoted into a 96 well plate assaying viability (50 µL of cells per well, each sample assayed in duplicate and averaged). Plates were equilibrated at room temperature for 20 min before addition of 50 μL Cell Titer Glo (Promega) to each well. Plates were shaken on an orbital shaker for 2 min at 500 rpm. Luminescence was read after 15 min on an Envision plate reader (Perkin Elmer). Dissociated cells were also stained for caspase and EdU. […]"}, "[4]": {"test_system": "RB355 cells", "test": "Activated caspase 3 immunostaining of RB355 cells", "format": "cell-based"}},
  "data": [
    {"compound": "COc1cc(Nc2ncc(F)c(Nc3ccc4c(n3)NC(=O)C(C)(C)O4)n2)cc(OC)c1OC.O=S(=O)(O)c1ccccc1", "note": "[R406 phenylsulfonate salt]", "values": [
      {"measurement": "Measured Concentration", "setting": "[1]; 10 mM DMSO stock diluted 1 in 10 in PBS prior to filtration", "value": 1010, "unit": "µM"},
      {"measurement": "Measured Concentration", "setting": "[1]; DMSO stock diluted 1 in 10 in PBS, 0.22 micron filtered", "value": 88, "unit": "µM"},
      {"measurement": "Measured Concentration", "setting": "[1]; DMSO stock diluted 1 in 20 in PBS prior to filtration", "value": 559, "unit": "µM"},
      {"measurement": "Measured Concentration", "setting": "[1]; DMSO stock diluted 1 in 20 in PBS, 0.22 micron filtered", "value": 98, "unit": "µM"}
    ]},
    {"compound": "COc1cc(Nc2ncc(F)c(Nc3ccc4c(n3)NC(=O)C(C)(C)O4)n2)cc(OC)c1OC", "note": "[R406]", "values": [
      {"measurement": "time extracted samples were stable", "setting": "[2]; extracted from murine vitreous, room temperature", "value": "at least 48 hours"},
      {"measurement": "Accuracy%", "setting": "[2]; extracted vitreous samples in autosampler for 2 days, injected at Day 3, High Control 3333.3 nM", "value": 91.6, "unit": "%"},
      {"measurement": "Accuracy%", "setting": "[2]; extracted vitreous samples in autosampler for 2 days, injected at Day 3, Low Control 41.2 nM", "value": 96.0, "unit": "%"},
      {"measurement": "Accuracy%", "setting": "[2]; extracted vitreous samples in autosampler for 2 days, injected at Day 3, Middle Control 370.4 nM", "value": 88.8, "unit": "%"},
      {"measurement": "Accuracy%", "setting": "[2]; murine vitreous at -20°C, thawed on Day 2, injected at Day 3, High Control 3333.3 nM", "value": 91.1, "unit": "%"},
      {"measurement": "Accuracy%", "setting": "[2]; murine vitreous at -20°C, thawed on Day 2, injected at Day 3, Low Control 41.2 nM", "value": 109.4, "unit": "%"},
      {"measurement": "Accuracy%", "setting": "[2]; murine vitreous at -20°C, thawed on Day 2, injected at Day 3, Middle Control 370.4 nM", "value": 93.2, "unit": "%"},
      {"measurement": "Accuracy%", "setting": "[2]; murine vitreous at -20°C, thawed on Day 3, injected at Day 3, High Control 3333.3 nM", "value": 90.3, "unit": "%"},
      {"measurement": "Accuracy%", "setting": "[2]; murine vitreous at -20°C, thawed on Day 3, injected at Day 3, Low Control 41.2 nM", "value": 96.6, "unit": "%"},
      {"measurement": "Accuracy%", "setting": "[2]; murine vitreous at -20°C, thawed on Day 3, injected at Day 3, Middle Control 370.4 nM", "value": 94.4, "unit": "%"},
      {"measurement": "Accuracy%", "setting": "[2]; murine vitreous at -80°C, injected at Day 8, High Control 3333.3 nM", "value": 96.4, "unit": "%"},
      {"measurement": "Accuracy%", "setting": "[2]; murine vitreous at -80°C, injected at Day 8, Low Control 41.2 nM", "value": 78.7, "unit": "%"},
      {"measurement": "Accuracy%", "setting": "[2]; murine vitreous at -80°C, injected at Day 8, Middle Control 370.4 nM", "value": 87.5, "unit": "%"},
      {"measurement": "Accuracy%", "setting": "[2]; murine vitreous at -80°C, injected at Day 15, High Control 3333.3 nM", "value": 105.2, "unit": "%"},
      {"measurement": "Accuracy%", "setting": "[2]; murine vitreous at -80°C, injected at Day 15, Low Control 41.2 nM", "value": 105.5, "unit": "%"},
      {"measurement": "Accuracy%", "setting": "[2]; murine vitreous at -80°C, injected at Day 15, Middle Control 370.4 nM", "value": 99.4, "unit": "%"},
      {"measurement": "time spiked samples were stable", "setting": "[2]; murine vitreous stored at -20°C", "value": "at least 72 hours"},
      {"measurement": "time spiked samples were stable", "setting": "[2]; murine vitreous stored at -80°C", "value": "≥ 14", "unit": "days"},
      {"measurement": "cytotoxicity", "setting": "[3]; 1 μM R406, 48 – 72 h exposure, read-out: drop in viability compared to DMSO treated controls", "value": "~20", "unit": "%"},
      {"measurement": "reduction in viability compared to DMSO treated controls", "setting": "[3]; 1 μM R406, up to 24 h exposure", "value": "no reduction in cell viability"},
      {"measurement": "caspase 3+ activation compared to untreated or DMSO treated cells", "setting": "[4]; 1 μM R406, any exposure time up to 48 h", "value": "did not show any increase in caspase 3+ activation"},
      {"measurement": "proportion of activated caspase 3+ cells", "setting": "[4]; 2.5 and 5 μM R406, 0-72 h exposure", "value": "increased with increasing exposure duration"},
      {"measurement": "minimal exposure required to kill retinoblastoma cells in culture", "setting": "[4]; for at least 12 h", "value": "> 1", "unit": "µM"}
    ]}
  ]
}
